Results as given in PubChem BioAssay (NCI).
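1) Cells in 96-well plates. 2) Compound, 48 h, 5 concentrations. 3) Linear interpolation between surrounding doses. 4) Unreached endpoint = highest concentration. Abbreviation: GI50, concentration required for 50% inhibition of growth. TGI: total growth inhibition.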

Assays:
Assay in all cases: inhibition of tumour cell growth, NCI panel, 48 h
[1] = system: UACC-62 melanoma
[2] = system: KM12 colon
[3] = system: A549 NSCLC
[4] = system: SNB-75 CNS
[5] = system: U251 CNS
[6] = system: SF-268 CNS
[7] = system: PC-3 prostate
[8] = system: SK-MEL-2 melanoma
[9] = system: M14 melanoma
[10] = system: RXF 393 renal
[11] = system: ACHN renal
[12] = system: SK-MEL-5 melanoma
[13] = system: SF-295 CNS
[14] = system: 786-0 renal
[15] = system: CCRF-CEM leukemia
[16] = system: UACC-257 melanoma
[17] = system: HCC-2998 colon
[18] = system: NCI-H226 lung
[19] = system: SW-620 colon
[20] = system: MDA-MB-231 breast
[21] = system: HS 578T breast
[22] = system: OVCAR-5 ovarian
[23] = system: LOX IMVI melanoma
[24] = system: IGROV1 ovarian
[25] = system: CAKI-1 renal
[26] = system: SK-OV-3 ovarian
[27] = system: MALME-3M melanoma
[28] = system: SN12C renal
[29] = system: SNB-19 CNS
[30] = system: RPMI-8226 leukemia
[31] = system: COLO 205 colon
[32] = system: A498 renal
[33] = system: BT-549 breast
[34] = system: NCI/ADR-RES ovarian
[35] = system: SF-539 CNS
[36] = system: NCI-H460 lung
[37] = system: OVCAR-4 ovarian
[38] = system: SK-MEL-28 melanoma
[39] = system: HOP-62 NSCLC
[40] = system: MDA-MB-435
[41] = system: OVCAR-3 ovarian
[42] = system: EKVX NSCLC
[43] = system: UO-31 renal
[44] = system: NCI-H23 lung
[45] = system: HCT-15 colon
[46] = system: MOLT-4 leukemia
[47] = system: HL-60(TB) leukemia
[48] = system: HCT-116 colon
[49] = system: NCI-H522 lung
[50] = system: MCF7 breast
[51] = system: HT29 colon
[52] = system: K-562 leukemia
[53] = system: TK-10 renal
[54] = system: OVCAR-8 ovarian
[55] = system: DU-145 prostate
[56] = system: SR leukemia

For `Cc1c(C(=O)O)n(-c2ccc(Cl)cc2)c2ncnc(N)c12`, the GI50 [1] was 17 µM, the TGI [1] was 41.9 µM and the GI50 [2] was 29.9 µM. It also gave a TGI [2] greater than 100 µM, a GI50 [3] of 17.4 µM and a TGI [3] of 65.3 µM. It also gave a GI50 [4] of 62 µM, a TGI [4] greater than 100 µM and a GI50 [5] of 31.8 µM. It also gave a TGI [5] greater than 100 µM, a GI50 [6] of 12.2 µM and a TGI [6] of 38.9 µM. For the same compound, the GI50 [7] was 19.4 µM, the TGI [7] was 54.6 µM and the GI50 [8] was 46.9 µM. The TGI [8] was greater than 100 µM, the GI50 [9] was 22.6 µM and the TGI [9] was 53.6 µM. The GI50 [10] was 13.6 µM, the TGI [10] was 39.5 µM and the GI50 [11] was 22.6 µM. The TGI [11] was 96.9 µM, the GI50 [12] was 16.2 µM and the TGI [12] was 29.9 µM. For the same compound, the GI50 [13] was 28.7 µM, the TGI [13] was greater than 100 µM and the GI50 [14] was 21.1 µM. The TGI [14] was 56.2 µM, the GI50 [15] was 27.8 µM and the TGI [15] was 90.5 µM. It also gave a GI50 [16] of 36.2 µM, a TGI [16] greater than 100 µM and a GI50 [17] of 23.6 µM. For the same compound, the TGI [17] was 57.1 µM, the GI50 [18] was 14.9 µM and the TGI [18] was 50.2 µM. The GI50 [19] was 32.3 µM, the TGI [19] was greater than 100 µM and the GI50 [20] was 18 µM. It also gave a TGI [20] of 70.1 µM, a GI50 [21] of 23.1 µM and a TGI [21] of 69.6 µM. For the same compound, the GI50 [22] was 46.4 µM, the TGI [22] was greater than 100 µM and the GI50 [23] was 30.1 µM. The TGI [23] was greater than 100 µM, the GI50 [24] was 14.6 µM and the TGI [24] was greater than 100 µM. It also gave a GI50 [25] of 19.2 µM, a TGI [25] of 67.8 µM and a GI50 [26] of 43.9 µM. It also gave a TGI [26] of 75.1 µM, a GI50 [27] of 31.5 µM and a TGI [27] of 75.7 µM. For the same compound, the GI50 [28] was 19.5 µM, the TGI [28] was 57.1 µM and the GI50 [29] was 36.4 µM. For the same compound, the TGI [29] was 97.6 µM, the GI50 [30] was 12.4 µM and the TGI [30] was 35.8 µM. The GI50 [31] was 21.7 µM, the TGI [31] was 43.3 µM and the GI50 [32] was 19.4 µM. It also gave a TGI [32] of 52.2 µM, a GI50 [33] of 21.7 µM and a TGI [33] of 58.7 µM. For the same compound, the GI50 [34] was 25.1 µM, the TGI [34] was greater than 100 µM and the GI50 [35] was 22.7 µM. It also gave a TGI [35] of 48.6 µM, a GI50 [36] of 14.5 µM and a TGI [36] of 37.8 µM. It also gave a GI50 [37] of 48.4 µM, a TGI [37] greater than 100 µM and a GI50 [38] of 64.8 µM. For the same compound, the TGI [38] was greater than 100 µM, the GI50 [39] was 20 µM and the TGI [39] was 58.6 µM. The GI50 [40] was 33.2 µM, the TGI [40] was greater than 100 µM and the GI50 [41] was 17.5 µM. It also gave a TGI [41] greater than 100 µM, a GI50 [42] of 17.2 µM and a TGI [42] of 56.1 µM. It also gave a GI50 [43] of 10.3 µM, a TGI [43] greater than 100 µM and a GI50 [44] of 16.7 µM. The TGI [44] was 37.2 µM, the GI50 [45] was 24.1 µM and the TGI [45] was 96.9 µM. The GI50 [46] was 31.2 µM, the TGI [46] was greater than 100 µM and the GI50 [47] was 37.3 µM. It also gave a TGI [47] greater than 100 µM, a GI50 [48] of 20.5 µM and a TGI [48] of 47.7 µM. It also gave a GI50 [49] of 16 µM, a TGI [49] of 50.5 µM and a GI50 [50] greater than 100 µM. The TGI [50] was greater than 100 µM, the GI50 [51] was 22.6 µM and the TGI [51] was 51 µM. The GI50 [52] was 21.4 µM, the TGI [52] was greater than 100 µM and the GI50 [53] was 21.8 µM. It also gave a TGI [53] of 70.1 µM, a GI50 [54] of 14 µM and a TGI [54] of 59.9 µM. It also gave a GI50 [55] of 24.1 µM, a TGI [55] of 75.4 µM and a GI50 [56] of 16.6 µM. For the same compound, the TGI [56] was greater than 100 µM.
